In US8877946B2, “Benzylidene-indolinone compounds and their medical use” (National University of Singapore, priority 2011, dated 2014):

tested on: HuH7 cells; assay: MTT antiproliferative (growth inhibition) assay on HuH7 cells; type: cell-based, human; conditions: Homo sapiens, Huh-7, MTT, 72 h incubation, mean and SD of 3 or more independent determinations (Tables 1-8), read-out: IC 50
Text: MTT was purchased from DUCHEFA Biochemie ([…]). Sunitinib, and sodium dodecyl sulfate, bovine serum albuminwere obtained from Sigma Aldrich (Singapore). Sorafenib was purchase from Ontario Chem. Fetal bovine serum (FBS) was obtained from Invitrogen. Human hepatocellular carcinoma cells (HuH-7 and Hep G2), and human diploid fibroblast strain (IMR 90). HuH7 was obtained as gifts from Dr Ho Han Kiat, Department of Pharmacy, NUS. IMR90 and Hep G2 were purchased from American Type Culture Collection (ATCC). HuH-7 cells were cultured in DMEM (Dulbecco's Modified Eagle Medium, high glucose) with 10% v/v fetal bovine serum (FBS), 100 mg/L penicillin G and 100 mg/L streptomycin. IMR 90 cell were cultured in EMEM (Eagle's Minimum Essential Medium), with 10% v/v FBS and 100 mg/L penicillin G and 100 mg/L streptomycin. The cells were sub-cultured when HuH7 or Hep G2 reached a density of 70-80×10^5 cell/T75 flask, and IMR 90 reached 20×10^5 cell/T75 flask. Cells were used within 2-10 passages for viability experiments.
The anti-proliferative activity of the test compounds were determined by the MTT assay. An aliquot (200 μL, 3×10^4 cells/mL for HuH7, 3.75×10^4 cells/mL for Hep G2, and 2×10^4 cells/mL for IMR 90) of medium was added to each well of the microtitre plate. […] The existing medium was removed from each well and replaced by fresh medium (200 μL) containing a known concentration of test compound. The final concentration of DMSO in each well was maintained at 0.5% v/v. (1% v/v was also utilized if the compounds were not soluble) The test compounds were incubated with the cells for another 72 h at 37 deg C., 5% CO2. The medium was then removed from the well and replaced with FBS free medium (200 μL) and MTT (50 μL of 2 mg/mL solution in phosphate buffer saline, pH 7.4). The phosphate buffer saline comprises 10 mM of potassium phosphate and 137 mM sodium chloride. After incubation (3 h) at 37 deg C., 5% CO2, the supernatant was removed and a solution of 200 μL DMSO and 25 μL Sorenson buffer (0.1 M glycine, 0.1 M sodium chloride, adjusted to pH 10.5 with 0.1 M sodium hydroxide) was added to dissolve the formazan crystals in each well. Vehicle control were cells grown in 1% v/v DMSO/Medium for 72 h, 37 deg C., 5% CO2 while blank controls were wells that contained only 200 μL DMSO and 25 μL Sorenson buffer. Absorbances were measured at 570 nm on a microplate reader (Tecan, Infinite 200). The viability of cells at a given concentration of test compound was determined from the expression:
[formula] where abs_compound=absorbance of wells containing cells and test compound, abs_vehicle (Not the same as above. Change to abs_vehicle)=absorbance of vehicle control and abs_blank=absorbance of blank control.
Each concentration of test compound was evaluated at least 3 times on separate occasions, and two different stock solution were used. The IC50 value (concentration that inhibited 50% of cell growth) was determined from the sigmoidal curve obtained by plotting percentage viability versus logarithmic concentration of test compound using GraphPad Prism 5 (San Diego, USA).

Row | Structure (SMILES) | IC50 [µM]
1 | O=C1Nc2cc(F)ccc2/C1=C\c1cccc(C(F)(F)F)c1 [Compound 3-6, (E)-6-Fluoro-3-(3-trifluoromethyl-benzylidene)-1,3-dihydro-indol-2-one, reference compound] | 1.41 ± 0.13
2 | Cc1ccccc1/C=C1/C(=O)Nc2ccc(F)cc21 [Compound 4-5, (E)-5-Fluoro-3-(2-methyl-benzylidene)-1,3-dihydro-indol-2-one] | 11.7 ± 1.1
3 | COc1cccc(/C=C2/C(=O)Nc3cc(Cl)ccc32)c1 [Compound 1-7, (E)-6-Chloro-3-(3-methoxy-benzylidene)-1,3-dihydro-indol-2-one] | 12.2 ± 0.64
4 | Cc1ccc(/C=C2/C(=O)Nc3ccc(F)cc32)cc1 [Compound 4-7, (E)-5-Fluoro-3-(4-methyl-benzylidene)-1,3-dihydro-indol-2-one] | 20.8 ± 4.02
5 | O=C1Nc2ccc(F)cc2/C1=C\c1cccc(OC(F)(F)F)c1 [Compound 4-13, (E)-5-Fluoro-3-(3-trifluoromethoxy-benzylidene)-1,3-dihydro-indol-2-one] | 23.1 ± 4.75
6 | O=C1Nc2ccc(F)cc2/C1=C\c1ccc(F)c(F)c1 [Compound 4-12, (E)-3-(3,4-Difluoro-benzylidene)-5-fluoro-1,3-dihydro-indol-2-one] | 15.3 ± 0.18
7 | O=C1Nc2cc(Cl)ccc2/C1=C\c1ccc(C(F)(F)F)cc1 [Compound 1-11, (E)-6-Chloro-3-(4-trifluoromethyl-benzylidene)-1,3-dihydro-indol-2-one] | 11 ± 1.78
8 | O=C1Nc2ccc(F)cc2/C1=C\c1ccc(C(F)(F)F)cc1 [Compound 4-11, (E)-5-Fluoro-3-(4-trifluoromethylbenzylidene)-1,3-dihydro-indol-2-one] | 9.31 ± 1.04
9 | NS(=O)(=O)c1cccc(/C=C2/C(=O)Nc3cc(Cl)ccc32)c1 [Compound 1-17, (E) 3-(6-Chloro-2-oxo-1,2-dihydro-indol-3-ylidenemethyl)-benzene-sulfonamide] | 3.41 ± 0.38
10 | CN(C)S(=O)(=O)c1cccc(/C=C2/C(=O)Nc3cc(Cl)ccc32)c1 [Compound 1-20, (E)-3-(6-Chloro-2-oxo-1,2-dihydro-indol-3-ylidenemethyl)-N,N-dimethyl-benzenesulfonamide] | 4.87 ± 0.36
11 | O=C1Nc2ccc(Cl)cc2/C1=C\c1ccc(F)c(F)c1 [Compound 2-9, (E)-5-Chloro-3-(3,4-difluoro-benzylidene)-1,3-dihydro-indol-2-one] | 11.4 ± 1.45
12 | O=C1Nc2ccc(Cl)cc2/C1=C\c1ccccc1F [Compound 2-2, (E)-5-Chloro-3-(2-fluoro-benzylidene)-1,3-dihydro-indol-2-one] | > 30
13 | O=C1Nc2cc(F)ccc2/C1=C\c1cccc(F)c1 [Compound 3-3, (E)-6-Fluoro-3-(3-fluoro-benzylidene)-1,3-dihydro-indol-2-one] | 2.41 ± 1.07
14 | Cc1cccc(/C=C2/C(=O)Nc3ccc(F)cc32)c1 [Compound 4-6, (E)-5-Fluoro-3-(3-methyl-benzylidene)-1,3-dihydro-indol-2-one] | > 30
15 | O=C1Nc2ccc(Cl)cc2/C1=C\c1cccc(OC(F)(F)F)c1 [Compound 2-10, (E)-5-Chloro-3-(3-trifluoromethoxyl-benzylidene)-1,3-dihydro-indol-2-one] | 3.83 ± 0.25
16 | O=C1Nc2cc(F)ccc2/C1=C\c1ccc(C(F)(F)F)cc1 [Compound 3-7, (E)-6-Fluoro-3-(4-trifluoromethyl-benzylidene)-1,3-dihydro-indol-2-one] | 8.42 ± 0.27
17 | N#Cc1cccc(/C=C2/C(=O)Nc3cc(Cl)ccc32)c1 [Compound 1-19, (E) 3-(6-Chloro-2-oxo-1,2-dihydro-indol-3-ylidenemethyl)-benzonitrile] | 7.36 ± 0.3
18 | CS(=O)(=O)c1cccc(/C=C2/C(=O)Nc3ccc(Cl)cc32)c1 [Compound 2-11, (E)-5-Chloro-3-(3-methanesulfonyl-benzylidene)-1,3-dihydro-indol-2-one] | 6.53 ± 0.51
19 | N#Cc1cccc(/C=C2/C(=O)Nc3ccc(F)cc32)c1 [Compound 4-15, (E) 3-(5-Fluoro-2-oxo-1,2-dihydro-indol-3-ylidenemethyl)-benzonitrile] | 7.36 ± 1.08
20 | O=C1Nc2cc(F)ccc2/C1=C\c1ccccc1C(F)(F)F [Compound 3-5, (E)-6-Fluoro-3-(2-trifluoromethyl-benzylidene)-1,3-dihydro-indol-2-one] | > 30

Next, values leading:

Row | IC50 [µM] | Structure (SMILES)
21 | 0.49 ± 0.05 | COc1ccc2c(c1)NC(=O)/C2=C/c1ccccc1F [Compound 5-2, (E)-3-(2-Fluoro-benzylidene)-6-methoxy-1,3-dihydro-indol-2-one]
22 | > 30 | O=C1Nc2ccc(F)c(F)c2C1=Cc1ccccc1C(F)(F)F (mixture of isomers) [Compound 6-5, (E/Z)-4,5-Difluoro-3-(2-trifluoromethyl-benzylidene)-1,3-dihydro-indol-2-one]
23 | 5.56 ± 0.06 | O=C1Nc2ccccc2/C1=C\c1cccc(C(F)(F)F)c1 [Compound 8-1, (E) 3-(3-Trifluoromethyl-benzylidene)-1,3-dihydro-indol-2-one]
24 | > 30 | O=C1Nc2ccccc2C1=Nc1cccc(C(F)(F)F)c1 [Compound 8-2, (E/Z) 3-(3-Trifluoromethyl-phenylimino)-1,3-dihydro-indol-2-one]
25 | > 30 | COc1ccc2c(c1)NC(=O)/C2=C/c1ccc(C(F)(F)F)cc1 [Compound 5-7, (E)-6-Methoxy-3-(4-trifluoromethyl-benzylidene)-1,3-dihydro-indol-2-one]
26 | 20.1 ± 1.72 | O=C1Nc2cc(Cl)ccc2C1=Nc1cccc(C(F)(F)F)c1 [Compound 8-4, (E/Z) 6-Chloro-3-(3-trifluoromethyl-phenylimino)-1,3-dihydro-indol-2-one]
27 | 13.9 ± 2.03 | CS(=O)(=O)c1cccc(C=C2C(=O)Nc3ccc(F)c(F)c32)c1 (mixture of isomers) [Compound 6-9, (E/Z)-4,5-Difluoro-3-(3-methanesulfonylbenzylidene)-1,3-dihydro-indol-2-one]
28 | > 30 | O=C1Nc2cc(F)c(F)cc2/C1=C\c1ccccc1 [Compound 7-1, (E)-3-Benzylidene-5,6-difluoro-1,3-dihydro-indol-2-one]
29 | 0.17 ± 0.02 | CNS(=O)(=O)c1cccc(/C=C2/C(=O)Nc3cc(OC)ccc32)c1 [Compound 5-8, (E)-3-(6-Methoxy-2-oxo-1,2-dihydro-indol-3-ylidenemethyl)-N-methyl-benzenesulphonamide]
30 | 6.74 ± 1.23 | CN1C(=O)/C(=C/c2cccc(C(F)(F)F)c2)c2ccccc21 [Compound 8-3, (E)-1-Methyl-3-(3-trifluoromethyl-benzylidene)-1,3-dihydro-indol-2-one]
31 | 14 ± 0.73 | O=C1Nc2ccc(F)c(F)c2/C1=C/c1ccc(F)cc1 [Compound 6-4, (Z)-4,5-Difluoro-3-(4-fluoro-benzylidene)-1,3-dihydro-indol-2-one]
32 | 23.13 ± 0.21 | O=C1Nc2ccc(F)cc2C1=Nc1cccc(C(F)(F)F)c1 [Compound 8-7, (E/Z)-5-Fluoro-3-(3-trifluoromethyl-phenylimino)-1,3-dihydro-indol-2-one]
33 | 2.94 ± 0.26 | O=C1Nc2ccc(F)c(F)c2/C1=C/c1cccc(OC(F)(F)F)c1 [Compound 6-8, (Z)-4,5-Difluoro-3-(3-trifluoromethoxyl-benzylidene)-1,3-dihydro-indol-2-one]
34 | 7.04 ± 0.8 | COc1ccc2c(c1)NC(=O)/C2=C/c1ccccc1C(F)(F)F [Compound 5-5, (E) 6-Methoxy-3-(2-trifluoromethyl-benzylidene)-1,3-dihydro-indol-2-one]
35 | 13.9 ± 2.03 | CS(=O)(=O)c1cccc(/C=C2/C(=O)Nc3cc(F)c(F)cc32)c1 [Compound 7-9, (E)-5,6-Difluoro-3-(3-methanesulfonylbenzylidene)-1,3-dihydro-indol-2-one]
36 | 15.8 ± 3.37 | CNS(=O)(=O)c1cccc(/C=C2\C(=O)Nc3ccc(F)c(F)c32)c1 [Compound 6-10, (Z)-3-(4,5-Difluoro-2-oxo-1,2-dihydro-indol-3-ylidenemethyl)-N-methyl-benzenesulphonamide]
37 | 2.76 ± 0.16 | CNS(=O)(=O)c1cccc(C=C2C(=O)Nc3cc(F)c(F)cc32)c1 [Compound 7-10]
